From ChEMBL document CHEMBL1201862, “PubChem BioAssay data set” (2004)
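Where inhibition never reached the appropriate level, the endpoint shown equals the highest concentration tested. Otherwise, values were interpolated linearly from a five-concentration, 48-hour dose response in 96-well plates. GI50 marks 50% less growth.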 Calls of active or inactive are those of the source. Rule as the data show it: active = GI50 up to about 1.1 µM and inactive = higher.

Assays:
Assay in all cases: NCI-60 cell line screen, 48 h
786-0 = system: 786-0
HOP-62 = system: HOP-62
IGROV-1 = system: IGROV-1
NCI-H226 = system: NCI-H226
RXF 393 = system: RXF 393
SW-620 = system: SW-620
SF-295 = system: SF-295
Hs-578T = system: Hs-578T
DU-145 = system: DU-145
RPMI-8226 = system: RPMI-8226
OVCAR-5 = system: OVCAR-5
MDA-N = system: MDA-N
HT-29 = system: HT-29
K562 = system: K562
NCI-H23 = system: NCI-H23
CAKI-1 = system: CAKI-1
A549 = system: A549
SK-MEL-28 = system: SK-MEL-28
OVCAR-8 = system: OVCAR-8
SNB-75 = system: SNB-75
TK-10 = system: TK-10
SN12C = system: SN12C
CCRF-CEM = system: CCRF-CEM
UO-31 = system: UO-31
HL-60 = system: HL-60
SK-MEL-5 = system: SK-MEL-5
SK-OV-3 = system: SK-OV-3
NCI-H522 = system: NCI-H522
M14 = system: M14
COLO 205 = system: COLO 205
MDA-MB-231 = system: MDA-MB-231
NCI-H460 = system: NCI-H460
SF-539 = system: SF-539
NCI/ADR-RES = system: NCI/ADR-RES
HCT-116 = system: HCT-116
A498 = system: A498
SNB-19 = system: SNB-19
SF-268 = system: SF-268
HCC 2998 = system: HCC 2998
UACC-257 = system: UACC-257
LOX IMVI = system: LOX IMVI
MDA-MB-435 = system: MDA-MB-435
HOP-92 = system: HOP-92
OVCAR-3 = system: OVCAR-3
SK-MEL-2 = system: SK-MEL-2
T47D = system: T47D
U-251 = system: U-251
MCF7 = system: MCF7
OVCAR-4 = system: OVCAR-4
KM12 = system: KM12
UACC-62 = system: UACC-62
SR = system: SR
EKVX = system: EKVX
MOLT-4 = system: MOLT-4
ACHN = system: ACHN
Malme-3M = system: Malme-3M
PC-3 = system: PC-3
BT-549 = system: BT-549
HCT-15 = system: HCT-15

With `CCOC(=O)C(=Cn1c(=S)[nH]c2ccc([N+](=O)[O-])cc21)C(=O)OCC` the GI50 (786-0) was > 100 µM (inactive), the GI50 (HOP-62) was > 100 µM (inactive) and the GI50 (IGROV-1) was > 100 µM (inactive). For the same compound, the GI50 (NCI-H226) was 39.8 µM (inactive), the GI50 (RXF 393) was > 100 µM (inactive) and the GI50 (SW-620) was > 100 µM (inactive). For the same compound, the GI50 (SF-295) was > 100 µM (inactive), the GI50 (Hs-578T) was 90.4 µM (inactive) and the GI50 (DU-145) was > 100 µM (inactive). The GI50 (RPMI-8226) was > 100 µM (inactive), the GI50 (OVCAR-5) was > 100 µM (inactive) and the GI50 (MDA-N) was > 100 µM (inactive). The GI50 (HT-29) was > 100 µM (inactive), the GI50 (K562) was > 100 µM (inactive) and the GI50 (NCI-H23) was > 100 µM (inactive). For the same compound, the GI50 (CAKI-1) was > 100 µM (inactive), the GI50 (A549) was > 100 µM (inactive) and the GI50 (SK-MEL-28) was > 100 µM (inactive). For the same compound, the GI50 (OVCAR-8) was > 100 µM (inactive), the GI50 (SNB-75) was 47.9 µM (inactive) and the GI50 (TK-10) was > 100 µM (inactive). The GI50 (SN12C) was > 100 µM (inactive), the GI50 (CCRF-CEM) was > 100 µM (inactive) and the GI50 (UO-31) was 87.9 µM (inactive). For the same compound, the GI50 (HL-60) was > 100 µM (inactive), the GI50 (SK-MEL-5) was > 100 µM (inactive) and the GI50 (SK-OV-3) was > 100 µM (inactive). The GI50 (NCI-H522) was > 100 µM (inactive), the GI50 (M14) was > 100 µM (inactive) and the GI50 (COLO 205) was > 100 µM (inactive). For the same compound, the GI50 (MDA-MB-231) was > 100 µM (inactive), the GI50 (NCI-H460) was > 100 µM (inactive) and the GI50 (SF-539) was > 100 µM (inactive). The GI50 (NCI/ADR-RES) was > 100 µM (inactive), the GI50 (HCT-116) was > 100 µM (inactive) and the GI50 (A498) was > 100 µM (inactive). For the same compound, the GI50 (SNB-19) was > 100 µM (inactive), the GI50 (SF-268) was > 100 µM (inactive) and the GI50 (HCC 2998) was > 100 µM (inactive). The GI50 (UACC-257) was > 100 µM (inactive), the GI50 (LOX IMVI) was > 100 µM (inactive) and the GI50 (MDA-MB-435) was > 100 µM (inactive). The GI50 (HOP-92) was > 100 µM (inactive), the GI50 (OVCAR-3) was > 100 µM (inactive) and the GI50 (SK-MEL-2) was > 100 µM (inactive). For the same compound, the GI50 (T47D) was 59.6 µM (inactive), the GI50 (U-251) was > 100 µM (inactive) and the GI50 (MCF7) was > 100 µM (inactive). For the same compound, the GI50 (OVCAR-4) was > 100 µM (inactive), the GI50 (KM12) was > 100 µM (inactive) and the GI50 (UACC-62) was > 100 µM (inactive). For the same compound, the GI50 (SR) was > 100 µM (inactive), the GI50 (EKVX) was > 100 µM (inactive) and the GI50 (MOLT-4) was > 100 µM (inactive). The GI50 (ACHN) was > 100 µM (inactive), the GI50 (Malme-3M) was > 100 µM (inactive) and the GI50 (PC-3) was > 100 µM (inactive).

With `CS(=O)(=O)O[C@H]1CN2C[C@@H](O)[C@@H](O)[C@H]2[C@H]1CO.[B]` the GI50 (786-0) was > 100 µM (inactive), the GI50 (HOP-62) was > 100 µM (inactive) and the GI50 (IGROV-1) was > 100 µM (inactive). The GI50 (NCI-H226) was > 100 µM (inactive), the GI50 (RXF 393) was > 100 µM (inactive) and the GI50 (SW-620) was > 100 µM (inactive). The GI50 (BT-549) was > 100 µM (inactive), the GI50 (SF-295) was > 100 µM (inactive) and the GI50 (DU-145) was > 100 µM (inactive). For the same compound, the GI50 (RPMI-8226) was > 100 µM (inactive), the GI50 (OVCAR-5) was > 100 µM (inactive) and the GI50 (HT-29) was > 100 µM (inactive). For the same compound, the GI50 (K562) was > 100 µM (inactive), the GI50 (NCI-H23) was > 100 µM (inactive) and the GI50 (CAKI-1) was > 100 µM (inactive). For the same compound, the GI50 (A549) was > 100 µM (inactive), the GI50 (SK-MEL-28) was > 100 µM (inactive) and the GI50 (OVCAR-8) was > 100 µM (inactive). For the same compound, the GI50 (TK-10) was > 100 µM (inactive), the GI50 (CCRF-CEM) was 0.333 µM (active) and the GI50 (UO-31) was > 100 µM (inactive). For the same compound, the GI50 (SK-MEL-5) was > 100 µM (inactive), the GI50 (SK-OV-3) was > 100 µM (inactive) and the GI50 (M14) was > 100 µM (inactive). For the same compound, the GI50 (COLO 205) was > 100 µM (inactive), the GI50 (HCT-15) was over 100 µM and the GI50 (MDA-MB-231) was > 100 µM (inactive). The GI50 (NCI-H460) was > 100 µM (inactive), the GI50 (SF-539) was > 100 µM (inactive) and the GI50 (NCI/ADR-RES) was > 100 µM (inactive). The GI50 (HCT-116) was > 100 µM (inactive), the GI50 (A498) was > 100 µM (inactive) and the GI50 (SNB-19) was > 100 µM (inactive). The GI50 (SF-268) was > 100 µM (inactive), the GI50 (HCC 2998) was > 100 µM (inactive) and the GI50 (UACC-257) was > 100 µM (inactive). The GI50 (LOX IMVI) was > 100 µM (inactive), the GI50 (MDA-MB-435) was > 100 µM (inactive) and the GI50 (OVCAR-3) was > 100 µM (inactive). For the same compound, the GI50 (SK-MEL-2) was > 100 µM (inactive), the GI50 (T47D) was > 100 µM (inactive) and the GI50 (U-251) was > 100 µM (inactive). The GI50 (MCF7) was > 100 µM (inactive), the GI50 (OVCAR-4) was > 100 µM (inactive) and the GI50 (KM12) was > 100 µM (inactive). The GI50 (UACC-62) was > 100 µM (inactive), the GI50 (SR) was > 100 µM (inactive) and the GI50 (EKVX) was > 100 µM (inactive). The GI50 (MOLT-4) was > 100 µM (inactive), the GI50 (ACHN) was > 100 µM (inactive) and the GI50 (Malme-3M) was > 100 µM (inactive). For the same compound, the GI50 (PC-3) was > 100 µM (inactive).
